Experimental data: patent publication EP0174371B1, “TRIPHENYLMETHANE DERIVATIVES AND METHOD FOR DETERMINING OXIDATIVE SUBSTANCES USING THEM AS COLOR-FORMING COMPONENT” (WAKO PURE CHEMICAL INDUSTRIES, LTD., priority 1984, dated 1985)
Converted amounts (≈) assume the structure as drawn.

Tests used:
physchem = settings: pH 7.2, aqueous buffer
[1] = Solubility in water around the neutral pH range; settings: for solubility in water: pH 7.2 (around the neutral range); for solubility in water relative to BSPM: pH 7.2, multiple of the solubility of BSPM
[2] = test system: H202-POD (peroxidase) system; assay: Oxidation coloring in the H2O2-peroxidase system; settings: statement in words
Text: The triphenyl methane derivatives according to the present invention in which two groups ―O(CH2)nSO3M (M and n are the same meanings as given above), are present, are unexpectedly different from the triphenyl methane derivative in which two sulfonic acid groups are directly bonded to the benzene nucleus, since they are excellent in oxidation coloring in the H202-POD system, and can be satisfactorily used for the purpose aimed at by the present invention.

[3] = known triphenyl methane type leuco coloring matters, statement in words; cited from earlier work

Structure (SMILES)	solubility in water [1] [µM]	solubility in water relative to BSPM [1]	solubility in water in the neutral pH-range [3]	also measured
CCN(CC)c1ccc(C(c2ccc(N(CC)CC)cc2)c2ccccc2S(=O)(=O)O)cc1 [BSPM, bis(4-diethylaminophenyl)-2-sulfophenyl methane]	–	–	–	solubility (physchem): 500 µM (≈ 233 µg/mL)
CCN(CC)c1ccc(C(c2ccc(N(CC)CC)cc2)c2ccc(S(=O)(=O)O)cc2S(=O)(=O)O)cc1 [bis(4-diethylaminopheny)-2,4-disulfophenyl methane]	–	–	–	oxidation coloring in the H202-POD system [2]: no coloring takes place
CN(C)c1ccc(C(c2ccccc2)c2ccc(N(C)C)cc2)cc1 [leuco malachite green]	–	–	difficult to dissolve into water in the neutral pH-range	–
CN(C)c1ccc(C(c2ccc(N(C)C)cc2)c2ccc(N(C)C)cc2)cc1 [leucocrystal violet]	–	–	difficult to dissolve into water in the neutral pH-range	–

Second part, led by results:

solubility in water [1] [µM]	solubility in water relative to BSPM [1]	Structure (SMILES)	solubility in water in the neutral pH-range [3]	also measured
≥ 15000	not less than 30 times	CCN(CC)c1ccc(C(c2ccc(N(CC)CC)cc2)c2ccc(OCCCS(=O)(=O)O)c(OCCCS(=O)(=O)O)c2)cc1 [BSdiproPM, bis(4-N,N-diethylaminophenyl)-3,4-disodium sulfopropoxyphenyl methane]	–	–
5000	10 times	CCN(CC)c1ccc(C(c2ccc(OCCCS(=O)(=O)O)cc2)c2ccc(N(CC)CC)cc2)cc1 [BSproPM, bis(4-N,N-diethylaminophenyl)-4-sodium sulfopropoxyphenyl methane]	–	–
